One compound from patent publication US9067920B2, “Compounds useful for inhibiting Chk1” (Eli Lilly and Company, priority 2010, dated 2015) can be followed below.

The target of this experiment is T1, Chk1 (Homo sapiens, UniProt O14757).
T1 sequence (O14757 1-476): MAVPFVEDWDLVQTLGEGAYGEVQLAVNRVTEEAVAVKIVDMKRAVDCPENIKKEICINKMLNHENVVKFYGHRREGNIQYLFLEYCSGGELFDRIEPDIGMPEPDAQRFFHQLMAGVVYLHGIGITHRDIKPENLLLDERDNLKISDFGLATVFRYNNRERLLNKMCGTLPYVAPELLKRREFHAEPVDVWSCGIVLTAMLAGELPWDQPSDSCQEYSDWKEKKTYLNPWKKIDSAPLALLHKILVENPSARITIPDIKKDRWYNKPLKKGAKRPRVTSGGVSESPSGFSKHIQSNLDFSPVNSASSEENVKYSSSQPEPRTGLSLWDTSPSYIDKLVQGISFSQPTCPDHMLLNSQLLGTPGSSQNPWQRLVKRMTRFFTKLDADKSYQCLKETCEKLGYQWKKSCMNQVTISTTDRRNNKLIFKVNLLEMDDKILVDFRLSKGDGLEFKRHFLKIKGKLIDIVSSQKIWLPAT
Kind of experiment: Chk1 autophosphorylation cell based assay (phospho-Chk1 serine 296 immunoblot, doxorubicin-treated HeLa cells). More on the design: endogenous in cells; host or cells: HeLa. Particulars: 100 nM doxorubicin, 2 h compound, read-out: EC50 (inhibition of doxorubicin induced Chk1 autophosphorylation). The procedure: An inhibitor of Chk1 will prevent the kinase activity of the protein from phosphorylating substrates in cells in which the DNA damage response has been activated. An easily detectable substrate for Chk1 is an autophosphorylation site on Chk1 itself, serine 296. The following immunoblot assay can be used to measure the amount of phosphorylation of serine 296 on Chk1 and indirectly the activity level of the Chk1 protein kinase, HeLa cells are cultured in MEM w/Earle's Balanced Salt Solution with L-glutamine supplemented with 10% (v/v) heat inactivated fetal bovine serum, 1×MEM non-essential amino acids, 1× sodium pyruvate and 1×10^5 cells plated in 600 μL of MEM culture media per well of a […] cell culture plate. Cells are incubated for 24 h at 37° C., 5% CO2 and […]. Sixteen μL of a 4 μM stock of doxorubicin in culture media are added to each appropriate well to make a final concentration of 100 nM doxombicin. Plates are returned to the incubator for 24 additional hours prior to Chk1 inhibitor compound addition. […] Antigen-antibody-reporter conjugates immobilized on the membrane are detected with the Super Signal Western Femto HRP-detection reagent using a FUJI LAS-4000 imaging system. Phospho-Chk1 (ser296) band intensities are calculated using “Total Lab” software (Nonlinear Dynamics). […]

Take `COc1nc(C)ccc1-c1cc(Nc2cncc(O[C@@H]3CCCNC3)n2)[nH]n1` [Example 1, (R)-[5-(2-Methoxy-6-methyl-pyridin-3-yl)-2H-pyrazol-3-yl]-[6-(piperidin-3-yloxy)-pyrazin-2-yl]-amine]: the EC50 was less than 1 nM.

For orientation: EC50 means the concentration at which the effect is half-maximal.
